Where “and” joins values, the source holds several entries; their conditions need not be identical. Identical values can stand only once.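 These data come from cells grown in 96-well plates and exposed to compound for 48 hours at five concentrations. GI50 is the concentration that inhibits growth by half. At the TGI there is no net growth.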
What was measured:
Assay in all cases: DTP human tumour cell line panel, 48 h
OVCAR-3 ovarian = system: OVCAR-3 ovarian
A498 renal = system: A498 renal
RXF-631 renal = system: RXF-631 renal
SF-539 CNS = system: SF-539 CNS
DMS 273 small cell lung = system: DMS 273 small cell lung
OVCAR-5 ovarian = system: OVCAR-5 ovarian
786-0 renal = system: 786-0 renal
HT29 colon = system: HT29 colon
CCRF-CEM leukemia = system: CCRF-CEM leukemia
M14 melanoma = system: M14 melanoma
MDA-MB-435 = system: MDA-MB-435
K-562 leukemia = system: K-562 leukemia
MDA-N = system: MDA-N
EKVX NSCLC = system: EKVX NSCLC
MDA-MB-231 breast = system: MDA-MB-231 breast
NCI-H460 lung = system: NCI-H460 lung
UACC-257 melanoma = system: UACC-257 melanoma
A549 NSCLC = system: A549 NSCLC
HS 578T breast = system: HS 578T breast
LOX IMVI melanoma = system: LOX IMVI melanoma
M19-MEL melanoma = system: M19-MEL melanoma
CAKI-1 renal = system: CAKI-1 renal
NCI-H23 lung = system: NCI-H23 lung
HOP-62 NSCLC = system: HOP-62 NSCLC
SK-MEL-2 melanoma = system: SK-MEL-2 melanoma
BT-549 breast = system: BT-549 breast
HOP-92 NSCLC = system: HOP-92 NSCLC
SF-268 CNS = system: SF-268 CNS
SNB-19 CNS = system: SNB-19 CNS
DMS 114 small cell lung = system: DMS 114 small cell lung
UO-31 renal = system: UO-31 renal
UACC-62 melanoma = system: UACC-62 melanoma
OVCAR-4 ovarian = system: OVCAR-4 ovarian
KM12 colon = system: KM12 colon
SK-MEL-28 melanoma = system: SK-MEL-28 melanoma
OVCAR-8 ovarian = system: OVCAR-8 ovarian
SR leukemia = system: SR leukemia
NCI/ADR-RES ovarian = system: NCI/ADR-RES ovarian
SK-MEL-5 melanoma = system: SK-MEL-5 melanoma
HCT-15 colon = system: HCT-15 colon
HCC-2998 colon = system: HCC-2998 colon
IGROV1 ovarian = system: IGROV1 ovarian
HCT-116 colon = system: HCT-116 colon
MCF7 breast = system: MCF7 breast
MOLT-4 leukemia = system: MOLT-4 leukemia
SF-295 CNS = system: SF-295 CNS
RXF 393 renal = system: RXF 393 renal
TK-10 renal = system: TK-10 renal
HL-60(TB) leukemia = system: HL-60(TB) leukemia
DLD-1 colon = system: DLD-1 colon
SN12C renal = system: SN12C renal
T-47D breast = system: T-47D breast
PC-3 prostate = system: PC-3 prostate
DU-145 prostate = system: DU-145 prostate
RPMI-8226 leukemia = system: RPMI-8226 leukemia
KM20L2 colon = system: KM20L2 colon
NCI-H226 lung = system: NCI-H226 lung
SW-620 colon = system: SW-620 colon
MALME-3M melanoma = system: MALME-3M melanoma
SK-OV-3 ovarian = system: SK-OV-3 ovarian
SNB-78 CNS = system: SNB-78 CNS
U251 CNS = system: U251 CNS
XF 498 CNS = system: XF 498 CNS
ACHN renal = system: ACHN renal
HOP-18 NSCLC = system: HOP-18 NSCLC
SNB-75 CNS = system: SNB-75 CNS

`O=C1C(CN(Cc2ccccc2)Cc2ccccc2)CCCC1CN(Cc1ccccc1)Cc1ccccc1` (stereo not drawn) was tested, and the GI50 (OVCAR-3 ovarian) was 29.6 µM and > 100 µM, the TGI (OVCAR-3 ovarian) was 46.8 µM and > 100 µM and the TGI (A498 renal) was 77.2 µM and > 100 µM. For the same compound, the TGI (RXF-631 renal) was over 100 µM, the GI50 (SF-539 CNS) was 17.2 µM and 50.5 µM and the TGI (SF-539 CNS) was 33.1 µM and > 100 µM. The GI50 (DMS 273 small cell lung) was 17.1 µM and > 100 µM, the TGI (DMS 273 small cell lung) was 33.3 µM and > 100 µM and the TGI (OVCAR-5 ovarian) was over 100 µM. For the same compound, the GI50 (786-0 renal) was 16.8 µM and 55.1 µM, the TGI (786-0 renal) was 32.9 µM and > 100 µM and the GI50 (HT29 colon) was 25.7 µM and 59.3 µM. The TGI (HT29 colon) was 47.1 µM and > 100 µM, the TGI (CCRF-CEM leukemia) was 14.2 µM and > 100 µM and the GI50 (M14 melanoma) was 17.2 µM and 71.7 µM. The TGI (M14 melanoma) was 31.1 µM and > 100 µM, the TGI (MDA-MB-435) was over 100 µM and the GI50 (K-562 leukemia) was 54.3 µM and > 86.3 µM. For the same compound, the TGI (K-562 leukemia) was over 100 µM, the TGI (MDA-N) was over 100 µM and the GI50 (EKVX NSCLC) was 36.8 µM and > 100 µM. The TGI (EKVX NSCLC) was 59.9 µM and > 100 µM, the GI50 (MDA-MB-231 breast) was > 100 µM and 38.3 µM and the TGI (MDA-MB-231 breast) was over 100 µM. For the same compound, the TGI (NCI-H460 lung) was over 100 µM, the GI50 (UACC-257 melanoma) was 27.9 µM and > 100 µM and the TGI (UACC-257 melanoma) was 49.1 µM and > 100 µM. For the same compound, the TGI (A549 NSCLC) was over 100 µM, the GI50 (HS 578T breast) was > 100 µM and 28.1 µM and the TGI (HS 578T breast) was over 100 µM. The GI50 (LOX IMVI melanoma) was 14.1 µM and > 77.1 µM, the TGI (LOX IMVI melanoma) was 28.3 µM and > 100 µM and the TGI (M19-MEL melanoma) was 18.7 µM and > 100 µM. The TGI (CAKI-1 renal) was 11.5 µM and > 100 µM, the GI50 (NCI-H23 lung) was 32.2 µM and > 100 µM and the TGI (NCI-H23 lung) was 50 µM and > 100 µM. The TGI (HOP-62 NSCLC) was over 100 µM, the GI50 (SK-MEL-2 melanoma) was 19.6 µM and > 69.9 µM and the TGI (SK-MEL-2 melanoma) was 36 µM and > 100 µM. For the same compound, the TGI (BT-549 breast) was over 100 µM, the TGI (HOP-92 NSCLC) was > 52.1 µM and 82.5 µM and the GI50 (SF-268 CNS) was 33.3 µM and > 100 µM. For the same compound, the TGI (SF-268 CNS) was 53 µM and > 100 µM, the TGI (SNB-19 CNS) was over 100 µM and the TGI (DMS 114 small cell lung) was 10.3 µM and > 100 µM. For the same compound, the GI50 (UO-31 renal) was 16.9 µM and 47.6 µM, the TGI (UO-31 renal) was 27.3 µM and > 100 µM and the GI50 (UACC-62 melanoma) was 29.2 µM and > 100 µM. The TGI (UACC-62 melanoma) was 45.2 µM and > 100 µM, the GI50 (OVCAR-4 ovarian) was 20 µM and > 79.8 µM and the TGI (OVCAR-4 ovarian) was 36.6 µM and > 100 µM. The GI50 (KM12 colon) was 40.2 µM and > 100 µM, the TGI (KM12 colon) was over 100 µM and the GI50 (SK-MEL-28 melanoma) was 21 µM and > 100 µM. The TGI (SK-MEL-28 melanoma) was 38.8 µM and > 100 µM, the GI50 (OVCAR-8 ovarian) was 22.9 µM and > 95.5 µM and the TGI (OVCAR-8 ovarian) was 43.1 µM and > 100 µM. For the same compound, the GI50 (SR leukemia) was 77.3 µM, the TGI (SR leukemia) was over 100 µM and the TGI (NCI/ADR-RES ovarian) was over 100 µM. The TGI (SK-MEL-5 melanoma) was over 100 µM, the GI50 (HCT-15 colon) was 14.2 µM and > 100 µM and the TGI (HCT-15 colon) was 21.3 µM and > 100 µM. The TGI (HCC-2998 colon) was over 100 µM, the TGI (IGROV1 ovarian) was over 100 µM and the GI50 (HCT-116 colon) was 14.6 µM and 70.3 µM. For the same compound, the TGI (HCT-116 colon) was 21.5 µM and > 100 µM, the GI50 (MCF7 breast) was 20.3 µM and > 100 µM and the TGI (MCF7 breast) was over 100 µM. The TGI (MOLT-4 leukemia) was over 100 µM, the TGI (SF-295 CNS) was over 100 µM and the GI50 (RXF 393 renal) was 20.1 µM and > 100 µM. For the same compound, the TGI (RXF 393 renal) was over 100 µM, the GI50 (TK-10 renal) was 14.7 µM and > 100 µM and the TGI (TK-10 renal) was 28.3 µM and > 100 µM. For the same compound, the TGI (HL-60(TB) leukemia) was 12 µM and > 100 µM, the TGI (DLD-1 colon) was 10.4 µM and > 100 µM and the GI50 (SN12C renal) was 13.1 µM and > 79 µM. The TGI (SN12C renal) was 25.8 µM and > 100 µM, the TGI (T-47D breast) was over 100 µM and the GI50 (PC-3 prostate) was > 100 µM and 41.5 µM. For the same compound, the TGI (PC-3 prostate) was over 100 µM, the TGI (DU-145 prostate) was over 100 µM and the TGI (RPMI-8226 leukemia) was over 100 µM. For the same compound, the GI50 (KM20L2 colon) was 17.6 µM and > 100 µM, the TGI (KM20L2 colon) was 35.6 µM and > 100 µM and the TGI (NCI-H226 lung) was over 100 µM. For the same compound, the GI50 (SW-620 colon) was over 100 µM, the TGI (SW-620 colon) was over 100 µM and the GI50 (MALME-3M melanoma) was 8.03 µM and 36.3 µM. For the same compound, the TGI (MALME-3M melanoma) was 14.3 µM and > 83 µM, the TGI (SK-OV-3 ovarian) was > 77 µM and 97.5 µM and the GI50 (SNB-78 CNS) was 28.1 µM and > 100 µM. For the same compound, the TGI (SNB-78 CNS) was over 100 µM, the GI50 (U251 CNS) was 41.7 µM and > 100 µM and the TGI (U251 CNS) was over 100 µM. The TGI (XF 498 CNS) was 28.4 µM, the GI50 (ACHN renal) was 15.9 µM and > 85.3 µM and the TGI (ACHN renal) was 25.7 µM and > 100 µM. The GI50 (HOP-18 NSCLC) was 5.67 µM and 48.5 µM, the TGI (HOP-18 NSCLC) was 11.8 µM and > 100 µM and the GI50 (SNB-75 CNS) was 31.1 µM and 76.2 µM. For the same compound, the TGI (SNB-75 CNS) was 49.1 µM and > 100 µM.
